Patent publication US20060167094A1, “Satiety agent” (priority 2005, published 2006)
Several values for one entry are separate records, joined by “and”; a condition that tells them apart may be missing. Equal values may be shown once.

What was measured:
[1] = Antropyloroduodenal (APD) pressures by manometry during intraduodenal infusion; assay type: in vivo, human
Description: Subjects attended the laboratory at 0830 after fasting from 2200 the previous night from both solids and liquids. They were intubated with a 17-channel manometric catheter (Dentsleeve; Adelaide, South Australia, Australia) that was inserted through an anesthetized nostril and allowed to pass through the stomach and into the duodenum by peristalsis. The manometric catheter, which consisted of 16 sideholes spaced at 1.5-cm intervals, measures pressures in the antrum, pylorus, and duodenum. Six side holes (channels 1-6) were positioned in the antrum, a 4.5-cm sleeve sensor (channel 7), with two channels present on the back of the sleeve (channels 8 and 9), designed to measure pressure waves occurring over the entire pyloric region, were positioned across the pylorus, and seven channels were positioned in the duodenum (channels 10-16). An additional channel, used for intraduodenal infusions, was positioned 11.75 cm distal to the end of the sleeve sensor. The correct positioning of the catheter, so the sleeve sensor straddled the pylorus, was maintained by continuous measurement of the transmucosal potential difference (TMPD) between the most distal antral channel (channel 6; approximately −40 mV) and the most proximal duodenal channel (channel 10; ˜0 mV). For this purpose, an intravenous cannula filled with sterile saline was placed subcutaneously in the left forearm and used as a reference electrode. All manometric channels were perfused with degassed, distilled water except for the two TMPD channels, which were perfused with degassed 0.9% saline at 0.15 ml/min. An intravenous cannula was also placed into a right forearm vein for blood sampling to measure plasma CCK and GLP-1 concentrations.
Once the catheter was positioned correctly, fasting motility was monitored until the occurrence of phase III of the interdigestive migrating motor complex (MMC). Immediately after the cessation of phase III activity [at time t=−15 min], a baseline venous blood sample was taken, and a visual analog scale questionnaire (VAS) (see Measurements), assessing appetite-related sensations, was administered. At t=0 min (i.e., during phase I of the MMC), the duodenal infusion of 1) C12, 2) C10, or 3) control solution was commenced and continued for 90 min. APD pressures were monitored throughout the infusion period; blood samples were taken, and the VAS administered every 15 min from t=0 min until t=90 min. At t=90 min, the infusion was terminated, and the subject was immediately extubated and offered a cold buffet-style meal, the composition of which is provided in Table 1. The amount of food offered was in excess of what the subject was expected to consume. The subject was given 30 min (i.e., t=90 min to t=120 min) to consume the meal and instructed to eat until comfortably full. After ingestion of the meal, the subject was monitored for a further 30 min, a further VAS was completed, and blood samples were taken at t=120 and 150 min. The intravenous cannula was then removed, and the subject was allowed to leave the laboratory.
APD pressures. Manometric pressures were digitized, recorded on a computer-based system (PowerMac 7100/75, Apple Computers; Cupertino, Calif.) running commercially available software (HAD, Associate Prof. G S Hebbard, Melbourne, Australia) written in LabView 3.1.1 (National Instruments), and stored for subsequent analysis. APD pressures were analysed for 1) number and amplitude of isolated pyloric pressure waves (IPPWs) and pressure waves (PWs) in the antrum and duodenum and 2) number and length of PW sequences (PWSs) in the duodenum using custom-written software (Gastrointestinal Motility Unit; Utrecht, The Netherlands) modified to our requirements. […]

[2] = Tolerability of intraduodenal fatty acid infusion (pilot study and randomized study); assay type: in vivo, human
Procedure: Fatty acid solutions were prepared using 5.3 g of commercially available food grade saturated free fatty acids, lauric (C12:0) and decanoic (C10:0) acid (Sigma-Aldrich; Milwaukee, Wis.). C12 was dissolved in 0.89 g NaOH (Sigma-Aldrich; St. Louis, Mo.) and distilled water to a total volume of 250 ml. C12 was maintained in solution by heating it to 37° C., with a resulting pH of 8.2. C10 was also dissolved in NaOH (1.21 g), and the pH of the C10 and control (distilled water) solutions was adjusted to 8.2 by the addition of NaOH. All solutions were prepared on the morning of the study and infused at 37° C. […] We chose to infuse the fatty acid and control solutions intraduodenally to ensure uniformity of doses across subjects and study days.
However, during the C12 infusion, the first subject tested reported severe nausea and only tolerated the infusion for 30 min. A second subject, who again reported severe nausea, tolerated the infusion for 60 min.

[3] = at similar concentrations; cited from earlier work
[4] = test system: pancreatic bicarbonate secretion; conditions: luminal fatty acid; cited from earlier work
[5] = cited from earlier work
[6] = 90 min infusion, compared with control

SMILES: CCCCCCCCCCCC(=O)O [C12, lauric acid]
- basal pyloric pressure (tone) [1, 6]: increased basal pyloric pressure
- number of antral PWs [1, 6]: decreased the number of antral PWs compared with control
- number of duodenal PWs [1, 6]: decreased the number of duodenal PWs
- number of IPPWs compared with control ([1]; C12: 0-15, 15-30 and 30-45 min, C10: 0-15 min): increased the number of IPPWs
- length of antegrade peristalsis in the duodenum ([1]; C12 infusion): did not abolish but did shorten
- onset of gastrointestinal effects ([1]; C12 infusion 0.375 kcal/min): ~15 min
- amplitude of IPPWs compared with control ([1]; between 0-15 and 15-30 min): increased the amplitude of IPPWs compared with control
- number of IPPWs compared with C10 ([1]; between 15-30 and 30-45 min): increased the number of IPPWs
- amplitude of IPPWs compared with control ([1]; between 60 and 75 min): decreased the amplitude of IPPWs
- amplitude of IPPWs compared with C10 ([1]; between 75 and 90 min): decreased the amplitude of IPPWs
- number of duodenal PWSs travelling over three channels (3 to <4.5 cm) ([1]; compared with C10): decreased the number of waves that travelled over three channels compared with C10
- amplitude of antral pressures ([1]; compared with both C10 and control infusions, trend P=0.080): tended to be lower
- number of duodenal PWSs travelling over six channels (7.5 to <9 cm) ([1]; compared with control): decreased the number of waves that travelled over six channels compared with control
- number of duodenal PWSs travelling over three channels (3 to <4.5 cm) ([1]; compared with control): no difference between C12 or C10 and control
- number of duodenal PWSs travelling over two channels (1.5 to <3 cm) ([1]; compared with control): decreased the number of waves that travelled over two channels compared with control
- number of waves that travelled over nine channels ([1]; compared with control): decreased the number of waves that travelled over nine channels
- motor pattern on visual inspection of pressure traces ([1]; intraduodenal infusion 0.375 kcal/min): antral and duodenal PWs were inhibited and pyloric pressures stimulated
- time the infusion was tolerated ([2]; pilot study, 0.75 kcal/min (n=1)): ~60 min
- time the infusion was tolerated ([2]; pilot study, 1 kcal/min (n=1)): ~60 min
- adverse effect limiting the infusion ([2]; pilot study, 1 kcal/min and 0.75 kcal/min): severe nausea and vomiting
- adverse effect limiting the infusion ([2]; pilot study, 1.5 kcal/min): severe nausea
- time the infusion was tolerated ([2]; pilot study, 1.5 kcal/min, individual subjects): 30 min and 60 min
- time the infusion was tolerated ([2]; randomized study, 0.375 kcal/min, one subject with severe nausea): 30 min
- cytotoxicity relative to C18:1 [3]: half as cytotoxic as C18:1
- secretion of pancreatic bicarbonate relative to C10, C16, C18:0, C18:1 and C18:2 [4]: more than twice as much
- adverse effects of perfusion into human duodenum ([5]; 0.36 kcal/min): without adverse effects
- rate of emptying from the human stomach ([5]; in vivo): 0.375 kcal/min
